Tests used:
IRAK4 [1] = biological target: T1, IRAK4 (Homo sapiens, UniProt Q9NWZ3); assay: 2-hour 1 mM ATP IRAK4 Biochemical assay (as above, but with 100 pM IRAK4 and 1 mM ATP); settings: IRAK4 MSD BIOCHEMICAL (1 mM ATP) IC50 (μM), 100 pM IRAK4, 2 hours
T1 sequence (Q9NWZ3 1-460): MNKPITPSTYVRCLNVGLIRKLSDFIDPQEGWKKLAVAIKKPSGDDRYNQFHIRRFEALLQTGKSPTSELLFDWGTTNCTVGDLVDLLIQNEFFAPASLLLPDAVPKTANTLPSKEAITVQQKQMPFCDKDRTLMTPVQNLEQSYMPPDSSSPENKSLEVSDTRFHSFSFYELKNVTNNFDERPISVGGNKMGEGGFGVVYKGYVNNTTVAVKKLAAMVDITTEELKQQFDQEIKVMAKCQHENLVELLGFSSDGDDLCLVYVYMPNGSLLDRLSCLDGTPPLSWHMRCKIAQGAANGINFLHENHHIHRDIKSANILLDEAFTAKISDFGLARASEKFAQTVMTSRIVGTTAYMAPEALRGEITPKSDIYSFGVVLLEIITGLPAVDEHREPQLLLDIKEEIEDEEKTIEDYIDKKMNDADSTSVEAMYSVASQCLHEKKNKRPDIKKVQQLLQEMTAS
Summary of the method: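 Run with 100 pM IRAK4 and 1 mM ATP for 2 hours, quenched with EDTA pH 8. Phosphorylated biotinylated peptide captured on streptavidin MSD plates and detected with anti-phosphothreonine antibody plus Sulfo-Tag secondary by electrochemiluminescence.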

IRAK4 [2] = biological target: T1, IRAK4; assay: 2-hour 10 μM ATP Biochemical Assay (MesoScale Detection format; IRAK4 phosphorylation of biotin labeled IRAK1 activation loop peptide); settings: IRAK4 MSD BIOCHEMICAL (10 μM ATP) IC50 (μM), 1 nM IRAK4, 2 hours
Summary of the method: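 Kinase reaction run 2 h at 10 μM ATP with biotinylated IRAK1 activation-loop peptide, quenched with EDTA. Phospho-peptide captured on streptavidin MSD plates and detected with anti-phosphothreonine rabbit antibody plus Sulfo-Tag anti-rabbit electrochemiluminescence.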

| IC50 (IRAK4 [1]) | IC50 (IRAK4 [2]) | SMILES |
| --- | --- | --- |
| 0.005 µM | 0.002 µM | CCOc1cc2nc(C3CN(CCOC)C3)cn2cc1NC(=O)c1cccc(C(F)F)n1 [Example 80, 6-(difluoromethyl)-N-(7-ethoxy-2-(1-(2-methoxyethyl)azetidin-3-yl)imidazo[1,2-a]pyridin-6-yl)picolinamide] |
| 0.001 µM | 0.001 µM | CCOc1cc2nc(C3CN(C(C)=O)C3)cn2cc1NC(=O)c1cccc(C(F)F)n1 [Example 81, N-(2-(1-acetylazetidin-3-yl)-7-ethoxyimidazo[1,2-a]pyridin-6-yl)-6-(difluoromethyl)picolinamide] |
| 0.004 µM | 0.001 µM | CCOc1cc2nc(Cn3cncn3)cn2cc1NC(=O)c1cccc(C(F)F)n1 [Example 82, N-(2-((1H-1,2,4-triazol-1-yl)methyl)-7-ethoxyimidazo[1,2-a]pyridin-6-yl)-6-(difluoromethyl)picolinamide] |
| 0.005 µM | 0.001 µM | CCOc1cc2nc(CC3COCCO3)cn2cc1NC(=O)c1cccc(C(F)F)n1 (stereo not shown) [Example 83, N-(2-((1,4-dioxan-2-yl)methyl)-7-ethoxyimidazo[1,2-a]pyridin-6-yl)-6-(difluoromethyl)picolinamide] |
| 0.015 µM | 0.082 µM | CCOc1cc2nc(Cc3ccn(C)n3)cn2cc1NC(=O)c1cccc(C(F)F)n1 [Example 84, 6-(difluoromethyl)-N-(7-ethoxy-2-((1-methyl-1H-pyrazol-3-yl)methyl)imidazo[1,2-a]pyridin-6-yl)picolinamide] |
| 0.012 µM | 0.002 µM | CCOc1cc2nc(CN3CCCC3=O)cn2cc1NC(=O)c1cccc(C(F)F)n1 [Example 85, 6-(difluoromethyl)-N-(7-ethoxy-2-((2-oxopyrrolidin-1-yl)methyl)imidazo[1,2-a]pyridin-6-yl)picolinamide] |
| 0.008 µM | 0.006 µM | CCOc1cc2nc(COc3ccccn3)cn2cc1NC(=O)c1cccc(C(F)F)n1 [Example 86, 6-(difluoromethyl)-N-(7-ethoxy-2-((pyridin-2-yloxy)methyl)imidazo[1,2-a]pyridin-6-yl)picolinamide] |
| 0.017 µM | 0.004 µM | CCOc1cc2nc(Cn3ccccc3=O)cn2cc1NC(=O)c1cccc(C(F)F)n1 [Example 87, 6-(difluoromethyl)-N-(7-ethoxy-2-((2-oxopyridin-1(2H)-yl)methyl)imidazo[1,2-a]pyridin-6-yl)picolinamide] |
| 0.004 µM | 0.003 µM | CCOc1cc2nc(CCCOC)cn2cc1NC(=O)c1ccn(C(F)F)n1 [Example 88, 1-(difluoromethyl)-N-(7-ethoxy-2-(3-methoxypropyl)imidazo[1,2-a]pyridin-6-yl)-1H-pyrazole-3-carboxamide] |
| 0.004 µM | 0.002 µM | CCOc1cc2nc(C3(O)CCOCC3)cn2cc1NC(=O)c1cccc(C(F)F)n1 [Example 90, 6-(difluoromethyl)-N-(7-ethoxy-2-(4-hydroxytetrahydro-2H-pyran-4-yl)imidazo[1,2-a]pyridin-6-yl)picolinamide] |
| 0.003 µM | 0.001 µM | CCOc1cc2nc(C3(OCC)CCOCC3)cn2cc1NC(=O)c1cccc(C(F)F)n1 [Example 91, 6-(difluoromethyl)-N-(7-ethoxy-2-(4-ethoxytetrahydro-2H-pyran-4-yl)imidazo[1,2-a]pyridin-6-yl)picolinamide] |
| 0.005 µM | 0.001 µM | CCOc1nc2nc(CC3CCOC3)cn2cc1NC(=O)c1cccc(C(F)(F)F)n1 (stereo not shown) [Example 93, N-(7-ethoxy-2-((tetrahydrofuran-3-yl)methyl)imidazo[1,2-a]pyrimidin-6-yl)-6-(trifluoromethyl)picolinamide] |
| 0.001 µM | 0.001 µM | CCOc1cc2nc([C@H]3C[C@H](O)C3)cn2cc1NC(=O)c1cccc(C(F)F)n1 [Example 96] |
| 0.002 µM | 0.002 µM | CCOc1cc2nc([C@H]3C[C@@H](O)C3)cn2cc1NC(=O)c1cccc(C(F)F)n1 [Example 97] |
| 0.018 µM | 0.008 µM | CCOc1cc2nc(C3(CO)CC3)cn2cc1NC(=O)c1cccc(C(F)F)n1 [Example 98, 6-(difluoromethyl)-N-(7-ethoxy-2-(1-(hydroxymethyl)cyclopropyl)imidazo[1,2-a]pyridin-6-yl)picolinamide] |
| 0.004 µM | 0.002 µM | CCOc1cc2nc(CC(F)CO)cn2cc1NC(=O)c1cccc(C(F)F)n1 (stereo not shown) [Example 99, 6-(difluoromethyl)-N-(7-ethoxy-2-(2-fluoro-3-hydroxypropyl)imidazo[1,2-a]pyridin-6-yl)picolinamide] |
| 0.011 µM | 0.008 µM | CCOc1cc2nc(C(C)(C)O)cn2cc1NC(=O)c1cccc(C(F)F)n1 [Example 100, 6-(difluoromethyl)-N-(7-ethoxy-2-(2-hydroxypropan-2-yl)imidazo[1,2-a]pyridin-6-yl)picolinamide] |
| 0.029 µM | 0.006 µM | COCCOc1cc2nc(C3CC3)cn2cc1NC(=O)c1cccc(C(F)F)n1 [Example 101, N-(2-cyclopropyl-7-(2-methoxyethoxy)imidazo[1,2-a]pyridin-6-yl)-6-(difluoromethyl)picolinamide] |
| 0.025 µM | 0.011 µM | CCOc1cc2nc(C(=O)N(C)C)cn2cc1NC(=O)c1cccc(C(F)F)n1 [Example 108, 6-(6-(difluoromethyl)picolinamido)-7-ethoxy-N,N-dimethylimidazo[1,2-a]pyridine-2-carboxamide] |
| 0.003 µM | 0.002 µM | CCOc1cc2nc(C(C)(F)F)cn2cc1NC(=O)c1cccc(C(F)F)n1 [Example 109, N-(2-(1,1-difluoroethyl)-7-ethoxyimidazo[1,2-a]pyridin-6-yl)-6-(difluoromethyl)picolinamide] |
| 0.001 µM | 0.001 µM | CCOc1cc2nc(CCC(F)F)cn2cc1NC(=O)c1cccc(C(F)F)n1 [Example 110, 6-(difluoromethyl)-N-(2-(3,3-difluoropropyl)-7-ethoxyimidazo[1,2-a]pyridin-6-yl)picolinamide] |
| 0.003 µM | 0.002 µM | CCOc1cc2nc(C3(F)CC3)cn2cc1NC(=O)c1cccc(C(F)F)n1 [Example 111, 6-(difluoromethyl)-N-(7-ethoxy-2-(1-fluorocyclopropyl)imidazo[1,2-a]pyridin-6-yl)picolinamide] |
| 0.001 µM | 0.001 µM | CCOc1cc2nc(C3CCCOC3)cn2cc1NC(=O)c1cccc(C(F)(F)F)n1 (stereo not shown) [Example 112, N-(7-ethoxy-2-(tetrahydro-2H-pyran-3-yl)imidazo[1,2-a]pyridin-6-yl)-6-(trifluoromethyl)picolinamide] |
| 0.002 µM | 0.001 µM | CCOc1cc2nc([C@H]3C[C@@H](OC)C3)cn2cc1NC(=O)c1cccc(C(F)F)n1 [Example 115, 6-(difluoromethyl)-N-(7-ethoxy-2-((1s,3s)-3-methoxycyclobutyl)imidazo[1,2-a]pyridin-6-yl)picolinamide] |
| 0.001 µM | 0.001 µM | CCOc1cc2nc(C3CCOCC3)cn2cc1NC(=O)c1cccc(C(F)F)n1 [Example 116, 6-(difluoromethyl)-N-(7-ethoxy-2-(tetrahydro-2H-pyran-4-yl)imidazo[1,2-a]pyridin-6-yl)picolinamide] |
| 0.063 µM | 0.027 µM | CCOc1cc2nc(C3CC3)cn2cc1NC(=O)c1cccc(OC)n1 [Example 117, N-(2-cyclopropyl-7-ethoxyimidazo[1,2-a]pyridin-6-yl)-6-methoxypicolinamide] |

— patent US20220089592A1, “IMIDAZO[1,2-A]PYRIDINYL DERIVATIVES AS IRAK4 INHIBITORS” (priority 2019, published 2022)
